Laboratory results as given in patent EP0564397A1, “Antiatherosclerotic substituted phenylquinazoline derivatives” (SANDOZ LTD., priority 1992, dated 1993).

Legend:
Details in all cases: duration of treatment 8 days
Apo A-I = assay: Test B: Apo A-I test; format: in vivo
From the text: b) Test B: Apo A-I test: The test is effected as described in the literature, e.g. in EP 528 146.

HDL-cholesterol = assay: Test A: In vivo HDL-cholesterol test
From the text: (§1) a) Test A: In vivo HDL-cholesterol test: The test is effected according to the method described in the literature, e.g. in EP 528 146 Other conventional methods may be used to assay the blood serum samples for HDL-cholesterol and total triglycerides content.

total triglycerides = assay: Test A: In vivo HDL-cholesterol test, blood serum samples assayed for total triglycerides content
From the text: as §1

Row | Structure (SMILES) | Apo-I level increase (%) (Apo A-I; average dose 83 mg/kg/day) | HDL-cholesterol level increase (%) (HDL-cholesterol; average dose 83 mg/kg/day) | Total triglyceride level decrease (%) (total triglycerides; average dose 83 mg/kg/day) | Apo-I level increase (%) (Apo A-I; average dose 53 mg/kg/day) | HDL-cholesterol level increase (%) (HDL-cholesterol; average dose 53 mg/kg/day) | Total triglyceride level decrease (%) (total triglycerides; average dose 53 mg/kg/day)
1 | CC1=CSC2=Nc3ccccc3[C@@H](c3ccccc3)N12 [Example 1, R-isomer (free base), (R)-3-Methyl-5-phenyl-5H-thiazolo[2,3-b]quinazoline] | 62 | 402 | 15 |  |  | 
2 | Cc1ccc(C)c(OCCCC(C)(C)C(=O)O)c1 [Gemfibrozil] |  |  |  | 88 | 211 | 15
